# Laboratory results: patent publication US10329235B2, “System and method for producing 1,4-cyclohexanedimethanol and 1,4- cyclohexanedicarboxylic acid from terephthalic acid” (ClearWaterBay CHDM Technology Limited, priority 2017, dated 2019)
# Columns and labels:
# [1] = Solubility of TPA in water; type: physicochemical
# Text: Based on this, it is clearly evident that it will be beneficial to have processes for production of CHDM and CHDA directly from TPA without going through an intermediate TPA derivative. As noted initially, the main hurdle for such processes is getting TPA into the liquid phase.
# [2] = Dissolution of TPA and CHDA in water in stirred autoclave (Examples 1-3); type: physicochemical; conditions: Examples 1-3: 1.7-1.9 wt % TPA, 28.1-48.2 wt % CHDA, 50-70 wt % water, 170-190 °C, 10 MPa, 15 minutes
# Method: These examples are provided to highlight and validate the use of the method based on the dissolution chart for setting solvent and recirculation flows. For each of these examples, a slurry was prepared in a stirred autoclave, by mixing pre-determined amounts of water, TPA in powder form, and CHDA (22% trans) in powder form. The autoclave was then pressurized to 10 MPa using nitrogen gas and the temperature was then raised to the pre-determined level. Samples were drawn after 15 minutes of operation at this temperature level and analyzed to determine the compositions of TPA and CHDA. The predetermined feed mixture compositions and the pre-determined temperature levels for these experiments are shown in Table 1 below. Each pre-determined feed mixture composition is chosen such that it very closely corresponds to water/TPA and recirculation/TPA flow ratios that may be used in actual operation according to the preferred values from FIG. 6.
TPA Solubility ([1]; 150 °C),TPA Solubility ([1]; 200 °C),TPA Solubility ([1]; 250 °C),Dissolution in water/TPA/CHDA mixture [2],SMILES
0.0022 wt fraction,0.016 wt fraction,0.11 wt fraction,completely dissolved,"O=C(O)c1ccc(C(=O)O)cc1 [TPA, terephthalic acid]"
–,–,–,completely dissolved,"O=C(O)C1CCC(C(=O)O)CC1 (centres unmarked) [CHDA, 1,4-cyclohexanedicarboxylic acid]"
